Experimental data published in paper PMC11042424, “Development of a First-in-Class RIPK1 Degrader to Enhance Antitumor Immunity” (Research Square, 2024).

Experiments:
[1] = molecular target: T1, nLuc-RIPK1 fusion protein (Homo sapiens, UniProt Q13546); assay: NanoBRET based in-cell RIPK1 target engagement
T1 construct: expressed in transfected cells
T1 sequence (Q13546 1-671): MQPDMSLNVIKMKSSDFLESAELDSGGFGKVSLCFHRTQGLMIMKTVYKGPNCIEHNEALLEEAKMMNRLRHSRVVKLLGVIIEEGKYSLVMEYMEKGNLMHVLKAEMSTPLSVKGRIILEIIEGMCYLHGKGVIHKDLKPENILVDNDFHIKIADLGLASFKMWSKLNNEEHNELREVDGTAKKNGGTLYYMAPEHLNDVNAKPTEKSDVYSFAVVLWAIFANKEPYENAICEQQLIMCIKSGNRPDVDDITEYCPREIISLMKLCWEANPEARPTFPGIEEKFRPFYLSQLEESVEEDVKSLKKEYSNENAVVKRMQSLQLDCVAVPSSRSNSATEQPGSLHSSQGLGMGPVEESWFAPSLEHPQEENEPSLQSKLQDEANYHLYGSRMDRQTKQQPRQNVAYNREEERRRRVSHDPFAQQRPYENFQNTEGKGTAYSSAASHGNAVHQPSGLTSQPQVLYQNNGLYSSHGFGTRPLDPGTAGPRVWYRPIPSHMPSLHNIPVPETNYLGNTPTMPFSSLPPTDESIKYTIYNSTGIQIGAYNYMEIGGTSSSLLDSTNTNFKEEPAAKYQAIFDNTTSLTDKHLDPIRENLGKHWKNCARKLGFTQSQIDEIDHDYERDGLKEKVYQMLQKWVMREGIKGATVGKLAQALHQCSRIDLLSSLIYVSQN
Experimental: Figure 2 LD4172, a RIPK1 PROTAC, induces potent and highly specific degradation of RIPK1 in a panel of cell lines. A, Chemical structures of RIPK1 PROTAC, LD4172, and its negative control, LD4172-NC. […] B, Quantification of RIPK1 levels in both Jurkat and B16F10 cells treated with LD4172 at indicated concentrations for 24 h, followed by Western blotting. C, DC50 and Dmax of LD4172 in various human and mouse cell lines. DC50, the drug concentration causing 50% protein degradation; Dmax, the maximum level of protein degradation. D, RIPK1 degradation kinetics induced by LD4172 treatment (1 μM) and resynthesis kinetics upon washout of LD4172 in both Jurkat and B16F10 cells. E, Quantification of D. The degradation half-life of RIPK1 induced by LD4172 (1 μM) is <2 h in Jurkat and B16F10 cells. […] F, NanoBRET based in-cell RIPK1 target engagement. HEK293 cells were transfected with a plasmid expressing nLuc-RIPK1 fusion protein for 24 h, followed by incubating with a RIPK1 NanoBRET tracer (500 nM) and different concentrations of LD4172 and LD4172-NC (n=3). G, Time-resolved fluorescence resonance energy transfer (TR-FRET) based biochemical binding assay for RIPK1. GST-tagged human RIPK1 (1 nM), Tb-labeled anti-GST antibody (0.3 nM), a RIPK1 TR-FRET tracer (350 nM) and different concentrations of LD4172 (n=3) were incubated for 2 hours, followed by TR-FRET measurements with an excitation wavelength at 340 nm and emission wavelengths at 495 and 520 nm. H, NanoBRET based in-cell assay for ternary complex formation. HEK293T cells were co-transfected with nLuc-RIPK1 and VHL-HaloTag plasmids for 24 h, followed by treatment with indicated concentrations of LD4172 or LD4172-NC (n=3). I, LD4172 induced RIPK1 degradation depends on ternary complex formation, neddylation and proteasome activity. Representative immunoblots of RIPK1 in both Jurkat and B16F10 cells. Cells were treated with RIPK1 inhibitor (T2I), VHL ligand, a neddylation inhibitor (MLN4924) or a proteasome inhibitor (Carfilzomib) at indicated concentrations for 4 hours, followed by LD4172 treatment for 4 hours. J, Proteome profiling of LD4172 induced protein degradation. MDA-MB- 231 cells were treated with LD4172 (200 nM) or LD4172-NC (200 nM) for 6 h (n=3). In total, ~10,000 proteins were quantified in the proteomics experiment. […] Blue dots represent kinases that are inhibited by the warhead of LD4172 but not degraded by LD4172.
To elucidate the formation of a binary complex during RIPK1 degradation, we developed a competitive NanoBRET (Nano-Bioluminescence Resonance Energy transfer)-based target engagement (TE) assay to quantify the binding between RIPK1 and LD4172 in cells[12],[13]. First, we developed a RIPK1 tracer by conjugating the LD4172 warhead T2I with a BODIPY-590 fluorescent dye, dubbed T2–590 (refer to Supporting Information for details). The dissociation equilibrium constant (Kd) between the tracer and RIPK1 was determined to be 0.5 μM by titrating the tracer in HEK293T cells expressing a nLuc-RIPK1 fusion protein. […] This is usually expected, considering that the large molecular weight of LD4172 may lead to poor cellular permeability.

RIPK1 and VHL = molecular target: T2, RIPK1 and VHL (Homo sapiens, UniProt P40337+Q13546); assay: NanoBRET live-cell ternary complex assay; assay type: cell-based; details: HEK293 cells co-transfected with nLuc-RIPK1 and VHL-Halo
T2 construct: Addgene backbone 87075 (RIPK1 vector, made in house) N273A; host or cells: HEK293T
Experimental: Figure 2 LD4172, a RIPK1 PROTAC, induces potent and highly specific degradation of RIPK1 in a panel of cell lines. A, Chemical structures of RIPK1 PROTAC, LD4172, and its negative control, LD4172-NC. […] B, Quantification of RIPK1 levels in both Jurkat and B16F10 cells treated with LD4172 at indicated concentrations for 24 h, followed by Western blotting. C, DC50 and Dmax of LD4172 in various human and mouse cell lines. DC50, the drug concentration causing 50% protein degradation; Dmax, the maximum level of protein degradation. D, RIPK1 degradation kinetics induced by LD4172 treatment (1 μM) and resynthesis kinetics upon washout of LD4172 in both Jurkat and B16F10 cells. […] G, Time-resolved fluorescence resonance energy transfer (TR-FRET) based biochemical binding assay for RIPK1. […] In total, ~10,000 proteins were quantified in the proteomics experiment. […]
Human RIPK1 cDNA insert was cloned into pLenti6.2-ccdB-nLuc plasmid (87075, Addgene, a kind gift from Taipale Lab) using gateway cloning kit (11791020, Thermo) and standard protocol to obtain pLenti6.2-RIPK1-nLuc fusion vector. […] Immediately before reading the plate, prepare 4x concentrated NanoGlo nLuc substrate (N157, Promega) was prepared by diluting the stock into Opti-MEM 1,000-fold, and the NanoGlo substrate was then added into each well to bring the final concentration to 1x. […]

RIPK1 [2] = molecular target: T3, RIPK1 (Mus musculus, UniProt Q60855); assay: RIPK1 degradation in B16F10 mouse melanoma cells, Western blotting; assay type: cell-based; design: Quantification of RIPK1 levels in both Jurkat and B16F10 cells; endogenous in cells; host or cells: B16F10; details: pre-treatment 4 hours, then LD4172 4 hours
T3 sequence (Q60855 1-656): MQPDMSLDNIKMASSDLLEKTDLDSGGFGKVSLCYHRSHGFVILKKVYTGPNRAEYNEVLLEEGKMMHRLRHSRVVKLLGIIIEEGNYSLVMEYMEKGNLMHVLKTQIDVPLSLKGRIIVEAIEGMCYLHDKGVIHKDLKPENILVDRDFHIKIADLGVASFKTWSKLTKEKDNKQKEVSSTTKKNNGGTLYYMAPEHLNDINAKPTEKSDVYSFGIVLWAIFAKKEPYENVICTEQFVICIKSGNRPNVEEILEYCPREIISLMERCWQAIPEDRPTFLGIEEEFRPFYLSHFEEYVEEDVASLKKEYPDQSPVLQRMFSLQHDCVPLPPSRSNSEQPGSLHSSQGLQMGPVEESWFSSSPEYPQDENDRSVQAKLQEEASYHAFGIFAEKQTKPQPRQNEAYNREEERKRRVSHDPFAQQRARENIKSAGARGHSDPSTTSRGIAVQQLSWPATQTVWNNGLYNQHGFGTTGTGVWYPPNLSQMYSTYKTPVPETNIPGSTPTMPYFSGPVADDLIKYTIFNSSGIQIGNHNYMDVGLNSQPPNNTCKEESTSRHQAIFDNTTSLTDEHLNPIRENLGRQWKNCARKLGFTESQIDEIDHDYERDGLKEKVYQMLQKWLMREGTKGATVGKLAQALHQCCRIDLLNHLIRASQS
Description: (§1) Figure 1 Design and screen of RIPK1 PROTACs. A, Chemical structure and docking modeling of type II inhibitor 1 with the kinase domain of RIPK1 (PDB: 4NEU). The group exposed to solvent region is highlighted with yellow circle. B, Chemical structure and co-crystal structure of type III inhibitor 2 in complex with RIPK1 (PDB: 6R5F). The solventexposed group of inhibitor 2 is highlighted with yellow circle. C, A small library design of RIPK1 PROTACs. Either Type II inhibitor 1 or type III inhibitor 2 is conjugated with various E3 ligase ligands or adamantane tag to generate a small library of RIPK1 PROTACs. D, Quantification of RIPK1 levels in Jurkat cells treated with indicated compounds for 24 h at 0, 0.1, 1 and 10 μM, followed by Western blotting. E, Quantification of D. F, Quantification of RIPK1 levels in both Jurkat and B16F10 cells treated with type II inhibitor-based PROTACs with different linker lengths for 24 h, followed by Western blotting. G, Quantification of F.
(§2) Figure 2 LD4172, a RIPK1 PROTAC, induces potent and highly specific degradation of RIPK1 in a panel of cell lines. […] B, Quantification of RIPK1 levels in both Jurkat and B16F10 cells treated with LD4172 at indicated concentrations for 24 h, followed by Western blotting. […] G, Time-resolved fluorescence resonance energy transfer (TR-FRET) based biochemical binding assay for RIPK1. […]

RIPK1 [3] = molecular target: T4, RIPK1 (Homo sapiens, UniProt Q13546); assay: RIPK1 degradation in Jurkat cells, Western blotting; assay type: cell-based; details: pre-treatment 4 hours, then LD4172 4 hours
T4 construct: Quantification of RIPK1 levels in Jurkat cells treated with indicated compounds for 24 h; endogenous in cells; host or cells: Jurkat
T4 sequence (Q13546 1-671): T1 sequence (Q13546 1-671)
Description: as §1, §2

| SMILES | target engagement (TE) compared with LD4172 [1] | IC50 ([1]; HEK293 cells, tracer 500 nM, n=3, read-out: IC50 (nM), Fig. 2F) [nM] | ternary complex formation, NanoBRET between RIPK1 and VHL (RIPK1 and VHL) | effect on RIPK1 degradation by LD4172 (RIPK1 [2]) | effect on RIPK1 degradation by LD4172 (RIPK1 [3]) |
| --- | --- | --- | --- | --- | --- |
| Cc1ncsc1-c1ccc([C@H](C)NC(=O)[C@H]2C[C@H](O)CN2C(=O)[C@@H](NC(=O)CCCCCCCCCCC(=O)NCCCn2cc(-c3ccc4c(c3)CCN4C(=O)Cc3cccc(OC(F)(F)F)c3)c3c(N)ncnc32)C(C)(C)C)cc1 [LD4172-NC] | TE similar to that of LD4172 | 1850 | not | – | – |
| NS(=O)(=O)OC[C@@H]1C[C@@H](n2ccc3c(N[C@H]4CCc5ccccc54)ncnc32)C[C@@H]1O [MLN4924] | – | – | – | reversed | reversed |
| CC(C)C[C@H](NC(=O)[C@H](CCc1ccccc1)NC(=O)CN1CCOCC1)C(=O)N[C@@H](Cc1ccccc1)C(=O)N[C@@H](CC(C)C)C(=O)[C@@]1(C)CO1 [carfilzomib] | – | – | – | reversed | reversed |
